Laboratory results as given in patent US20060095978A1, “Screening assay” (priority 2002, published 2006).

Tests used:
CD25 on CD8+ T cells = experiment: CD25 expression on CD8+ T cells of peptide-stimulated OT-1 mice (FACS); format: in vivo, mouse; conditions: 100 μg OVA257-264, after 7 hours
Method: The animals are maintained in Microvent positive air supply cages (22±1° C., 55±5% relative humidity, 50-70 changes of fresh air/hour and 12 hours day and night cycle) with sawdust bedding.

CD8+ T cells = experiment: Frequency of CD8+ T cells in blood and spleen of OT-1 mice (FACS); format: in vivo, mouse
Method: (§1) OT-1 mice are obtained as described in Hogquist et al., 1994, Cell 76(1)17-27. The animals are maintained in Microvent positive air supply cages (22±1° C., 55±5% relative humidity, 50-70 changes of fresh air/hour and 12 hours day and night cycle) with sawdust bedding. Standard laboratory mouse chow (SNIFF, Soest, Germany) and drinking water is given ad libitum. Groups of two to four, 8-10 weeks old, male or female OT-1 mice weighing between 20-25 g are used for the experiments described. The animals are grouped (4 per group) in type II Macrolon cages one day before the experiment.
Doses of 3, 0.3 and 0.1 mg/kg b.w. are administered orally by gavage 2 hours before antigen challenge. The compound is diluted with solvent (Neoral Placebo) and given in a volume of 0.2 ml. Animals in the control group receive the solvent only. Ovalbumin-derived peptide (OVA257-264, […], >80% purity, piChemie R&D, Graz, Austria) or whole OVA (Sigma) are used as antigens. Both are diluted in PBS and administerd i.p. in a final volume of 0.2 ml. At various time points after OVA257-264 peptide injection about 200 μl blood is withdrawn from the retro-orbital plexus under ether anesthesia. In order to avoid coagulation, blood is collected in EDTA-containing buffer. Mice are killed by cervical dislocation and the spleen is excised. Single cell suspension are prepared in PBS by gently pressing the spleen through a 100 μm cell strainer. Finally, blood and spleen cells are washed with FACS buffer (PBS, 1 g/l EDTA, 1 g/l NaN3, 10% FCS; pH 7.1) and taken up in the same buffer for FACS analysis.
(§2) Single cell suspensions of spleen or blood containing approximately 1×10^6 cells in 100 μl of FACS buffer are used for staining. […] Lymphocytes are gated in the FSC/SSC dot blot according to size and granularity and further analyzed for expression of CD8, TCR Vβ5 expression and activation markers. Data are presented as original dot blots or are calculated from dot blots as percentage of cells positively stained for TCR or activation markers within the CD8^+ population.

IL-2 = experiment: Serum IL-2 in OVA257-264 stimulated OT-1 mice (sandwich ELISA); format: in vivo, mouse
Method: as §1
(§3) Cells are stimulated as described above and supernatant is harvested after 48 hours. The quantity of cytokines released by T cells into the culture medium after antigen stimulation is assayed by conventional sandwich ELISA. […] Specifically bound cytokines are quantified using biotinylated secondary antibodies JES6-5H4 (anti-IL-2), BVD6-24G2 (anti-IL-4), TRFK4 (anti-IL-5), SXC-1 (anti-IL-10) and XMG1.2 (anti-IFN-γ) followed by extravidin peroxidase and TMB substrate (both from Sigma). Absorption is measured at 450 and 690 nm on a Spectramax 340PC reader (Molecular Devices, Sunnyvale, Calif.). All cytokines are quantified with standard curves obtained with known amounts of recombinant mouse cytokines using SoftMax 3 software. […]

CD69 on CD8+ T cells = experiment: CD69 expression on CD8+ T cells of antigen-stimulated OT-1 mice (FACS); format: in vivo, mouse
Method: as §1
Doses of 3, 0.3 and 0.1 mg/kg b.w. are administered orally by gavage 2 hours before antigen challenge. […]
as §2
Data calculated from FACS analysis or serum cytokine determination are given as individual values for each animal. Data are analysed for normal distribution and then the ANOVA test for multiple comparison is applied using SigmaStat software. […]

IFN-γ [1] = experiment: Serum IFN-γ in OVA257-264 stimulated OT-1 mice (sandwich ELISA); format: in vivo, mouse
Method: as §1, §3

IFN-γ [2] = experiment: Serum IFN-γ in OVA/OVA323-339 stimulated DO11.10 mice (ELISA); format: in vivo, mouse; conditions: for IFN-γ level in pg/ml serum after day 0: 3 hours after first i.p. injection; for IFN-γ level in pg/ml serum after day 14: 3 hours after second i.p. injection
Method: Groups of six, 8-10 weeks old, male or female DO11.10 mice weighing between 20-22 g are obtained as described in Murphy K. M. et al. 1990, Science 250:1720-1722. The animals are maintained in Microvent positive air supply cages (22±1° C., 55±5% relative humidity, 50-70 changes of fresh air/hour and 12 hours day and night cycle) with sawdust bedding. Standard laboratory mouse chow (SNIFF, Soest, Germany) and drinking water is given ad libidum. The animals are used for the study after an adaptation period of 10-14 days and grouped (6 per group) in type II Macrolon cages one day before the experiment.
Groups of six DO11.10 mice are i.p. injected with 10 μg of ovalbumin (OVA, Sigma, St. Louis, USA) absorbed to 2 mg of Al(OH)3 (Alu Gel S; 2% Al(OH)3, Serva, Heidelberg, FRG) and diluted with saline to a volume of 0.2 ml or various amounts (1, 3, 10, 30, or 90 μg per mouse) of alum-precipitated OVA323-339 peptide (98% purity, piChem R&D, Graz Austria) in 0.2 ml on days 0 and 14. Before and at different time points on days 0 and 14 after the OVA or OVA323-339 peptide administration about 200 μl of blood are collected by puncture of the retro-orbital plexus under ether anesthesia.
The sera are collected and stored frozen at −20° C. until analyzed. […]
Murine IL-2, IFN-γ and IL-4 are analyzed by immunoassays (Quantikine R&D Systems, Minneapolis, Minn., USA). Results are expressed as pg per ml serum expressed as mean±SEM pg of the cytokine indicated per ml serum. Test and control groups are evaluated by Dunn test by Kruskall-Wallis One Way Anova using the SigmaStat® program. […]
Mice of the control group are injected with alum. Blood is collected before and at 2, 4, and 6 hours after the first peptide injection. INF-γ is determined in the sera by an ELISA. Results are expressed as mean pg per ml serum±SEM. […]

Splenocytes of OT-1 mice [3] = experiment: T cell proliferation assay, OT-1 splenocytes; format: cell-based, mouse; conditions: high amounts of OVA protein
Method: Splenocytes (4×10^5 cells/well) of OT-1 mice are stimulated in 200 μl final volume in 96-well flat bottomed plates with titrated amounts of OVA or OVA257-264 peptide at 37°. As medium RPMI 1640 supplemented with 10% FCS, 2.0 g/l NaHCO3, 2 mM L-glutamin, 100 IU/ml penicillin, 100 μg/ml streptomycin and 5×10^−5 M β-mercaptoethanol (Sigma, Vienna, Austria) is used. After 48 hours, cells are pulsed with 0.5 μCi ^3H-thymidine for 8 hours and the incorporated radioactivity is measured on a liquid scintillation β-counter (Trilux, 1450 Microbeta, Wallac, Turku, Finland).

Splenocytes of OT-1 mice [4] = experiment: Cytokine production assay, OT-1 splenocytes; format: cell-based, mouse; conditions: high amounts of OVA protein
Method: Cells are stimulated as described above and supernatant is harvested after 48 hours. The quantity of cytokines released by T cells into the culture medium after antigen stimulation is assayed by conventional sandwich ELISA. Microtiter plates (Nunc-Immunoplate™) are coated with the cytokine-specific capture antibodies JES6-1A12 (anti-IL-2), 11B11 (anti-IL-4), TRFK5 (anti-IL-5), JES5-2A5 (anti-IL-10) or R4-6A2 (anti-IFN-γ) at 4° overnight. Supernatants are incubated on the coated plates for 2 hours. Specifically bound cytokines are quantified using biotinylated secondary antibodies JES6-5H4 (anti-IL-2), BVD6-24G2 (anti-IL-4), TRFK4 (anti-IL-5), SXC-1 (anti-IL-10) and XMG1.2 (anti-IFN-γ) followed by extravidin peroxidase and TMB substrate (both from Sigma). Absorption is measured at 450 and 690 nm on a Spectramax 340PC reader (Molecular Devices, Sunnyvale, Calif.). All cytokines are quantified with standard curves obtained with known amounts of recombinant mouse cytokines using SoftMax 3 software. All mAbs and recombinant mouse cytokine standards are purchased from BD PharMingen, Heidelberg, Germany.

[5] = peptide-induced activation in OT-1 mice

Molecule: OVA257-264: peptide derived from chicken ovalbumin containing amino acids from position 257 to 264
- maximal up-regulation of CD25 (CD25 on CD8+ T cells): ca. 40 fold increase
- change of CD8+ T cells in the spleen (CD8+ T cells; 100 μg OVA257-264 i.p.): no significant decrease
- frequency of CD8+ expressing cells among the lymphocyte population in the blood (CD8+ T cells; 100 μg OVA257-264 i.p., within 3 hours, from around 30%): less than 2.5%
- time of early peak of serum IL-2 (IL-2; [5]): 4 h
- minimal amount required to induce significant serum quantities of IL-2 (IL-2; per animal, i.p., 4 hours): 30 µg
- maximal up-regulation of CD69 (CD69 on CD8+ T cells; 100 μg OVA257-264, after 3 hours): ca. 155 fold increase
- time of early peak of serum IFN-γ (IFN-γ [1]; [5]): 4 h
- minimal amount required to induce significant serum quantities of IFN-γ (IFN-γ [1]; per animal, i.p., 4 hours): 30 µg

Molecule: p/p: 10 μg OVA323-339 peptide/10 μg OVA323-339 peptide i.p. on days 0 and 14 (KISQAVHAAHAEINEAG; UniProt P01012 323-339, looked up, fragment)
- IFN-γ level in pg/ml serum after day 0 (IFN-γ [2]): 483.215 ± 134.641 pg/mL
- IFN-γ level in pg/ml serum after day 14 (IFN-γ [2]): 554.136 ± 110.652 pg/mL

B1: OVA: chicken ovalbumin (protein, UniProt P01012 2-386, looked up)
Ovalbumin: GSIGAASMEFCFDVFKELKVHHANENIFYCPIAIMSALAMVYLGAKDSTRTQINKVVRFDKLPGFGDSIEAQCGTSVNVHSSLRDILNQITKPNDVYSFSLASRLYAEERYPILPEYLQCVKELYRGGLEPINFQTAADQARELINSWVESQTNGIIRNVLQPSSVDSQTAMVLVNAIVFKGLWEKAFKDEDTQAMPFRVTEQESKPVQMMYQIGLFRVASMASEKMKILELPFASGTMSMLVLLPDEVSGLEQLESIINFEKLTEWTSSNVMEERKIKVYLPRMKMEEKYNLTSVLMAMGITDVFSSSANLSGISSAESLKISQAVHAAHAEINEAGREVVGSAEAGVDAASVSEEFRADHPFLFCIKHIATNAVLFFGRCVSP
- proliferation of OT-1 splenocytes in vitro (Splenocytes of OT-1 mice [3]): induce proliferation
- frequency of CD8+ T cells in both spleen and blood (CD8+ T cells; 1 mg OVA i.p., over 48 hours): declines marginally
- increase of CD69 expression in the spleen (CD69 on CD8+ T cells; 1 mg OVA i.p., late (7-24 hours)): ≤ 2.5 fold
- cytokine release of OT-1 splenocytes in vitro (Splenocytes of OT-1 mice [4]): cytokine release
- serum INF-γ levels after challenge with OVA-protein (IFN-γ [2]; given amount (10 μg) of OVA-protein): under the detection limit
- INF-γ levels after second OVA exposure versus before (IFN-γ [2]; primary OVA, second OVA exposure 2 weeks later): fail to increase
- serum INF-γ levels versus alum alone (IFN-γ [2]; primary sensitization with 10 μg of OVA): does not change

B2: o/o: 10 μg OVA/10 μg OVA i.p. on days 0 and 14 (protein, UniProt P01012 2-386, looked up)
Ovalbumin: B1 Ovalbumin
- IFN-γ level in pg/ml serum after day 0 (IFN-γ [2]): 3.788 ± 1.495 pg/mL
- IFN-γ level in pg/ml serum after day 14 (IFN-γ [2]): 6.796 ± 6.189 pg/mL
